According to patent US7893199B2, “Peptides having neutrophil-stimulating activity” (National University Corporation Gunma University, priority 2006, dated 2011):
Where no end group is shown, it is not given here.

Tests used:
[1] = target: T1, heat shock 70 kDa protein 8 isoform 1 (SEQ ID NO: 52) (Homo sapiens, UniProt P11142); test: chemical crosslinking experiment, streptavidin beads, electrophoresis (receptor identification); assay type: binding; settings: differentiated HL-60 cells
T1 construct: endogenous in cells; host or cells: neutrophil-like differentiated HL-60 cells
Procedure: Then, in order to identify directly the receptor molecules to which these functional peptides are bound, the following chemical crosslinking experiment was performed. That is, the HL-60 cells differentiated into the neutrophil-like cells were suspended in HBHS (not containing 0.1% BSA). The suspension was centrifuged (1,000 rpm, 5 minutes, 4° C.) and the supernatant was removed. The cells were suspended again in the HBHS not containing BSA so as to have the cell density of 5.6×10^6 cells/ml. The obtained cell suspension was preincubated at 37° C. for 10 minutes at first, and 1/10 volume of mitocryptide-3 and -5, [Cys^0]mitocryptide-3, [Cys^0]mitocryptide-5, [Cys^24]mitocryptide-3, and peptides obtained by introducing biotin into the N terminals thereof (N-biotinyl-mitocryptide-3, N-biotinyl-mitocryptide-5, N-biotinyl-[Cys^0]mitocryptide-3, N-biotinyl-[Cys^0]mitocryptide-5, and N-biotinyl-[Cys^24]mitocryptide-3) were added to have the final concentration of 10 μM, followed by incubation at 37° C. for 30 minutes. After that, the cell suspension was centrifuged (5,000 rpm, 4° C., 1 minute) and the supernatant was removed. The resultant cells were resuspended in HBHS not containing BSA and centrifuged again to wash the cells. 1 ml of a buffer for dissolving cells (100 mM NaCl, 20 mM Tris-HCl, 1 mM EDTA, 77.5 mTIU/ml aprotinin, 1 μM leupeptin, 1 μg/ml pepstatin A, 1 μg/ml phosphoramidone, 1% CHAPS, pH 7.5) with respect to 1 ml of the original cell suspension was added to the cell precipitate, and the mixture was incubated at 4° C. for 30 minutes to dissolve the cells, thereby a cell lysate was prepared. The cell lysate was centrifuged (15,000 rpm, 4° C., 15 minutes) and the supernatant was centrifuged again in the same condition. The obtained supernatant was incubated with streptavidin beads at 4° C. for 30 minutes, then, the beads were washed by centrifugation with the buffer for dissolving cells three times. Further, the beads were treated by heat at 100° C. for 10 minutes in the buffer for dissolving cells, and the mixture was centrifuged. The obtained supernatant was subjected to an SDS gel electrophoresis to separate the contained protein. Then, the gel was stained by silver stain method, thereby the proteins were analyzed. […] As a result, two specific spots were detected (FIG. 15-A). Therefore, the protein was extracted and degraded with trypsin, and then, the degraded proteins were analyzed by mass spectrometry.

[2] = target: T2, bovine Gi1-G protein (Bos taurus, UniProt P63097); test: G protein activation ability (GTP hydrolysis) with purified Gi1; assay type: biochemical
T2 construct: made in house; host or cells: E. coli

[3] = system: differentiated HL-60 cells; test: migration activity (Chemotaxis Index) of differentiated HL-60 cells; assay type: cell-based, human
Procedure: (3) Measurement of Migration Activity
The cells were collected by centrifuging the suspension of the differentiated HL-60 cells (1,000 rpm, 5 minutes, 4° C.). After that, the following operation was repeated three times to wash the cells: 10% FBS-RPMI1640 was added to the cells; the mixture was suspended by inversion; and the mixture was centrifuged again (1,000 rpm, 5 minutes, 4° C.). Then, a medium (10% FBS-RPMI1640) was added so that a cell density was 4×10^6 cells/ml, thereby a cell suspension was prepared. Subsequently, 1 ml of each peptide solution (dissolved in 10% FBS-RPMI 1640) was transferred to each well of a 24-well plate, and the plate was incubated at 37° C. for 20 minutes. After that, 500 μl of the cell suspension (2×10^6 cells) were put in Chemotaxicell (KURABO […] LTD., 3 μm) and the Chemotaxicell was set in a plate, followed by incubation in the presence of 5% CO2 at 37° C. for 1 hour. Then, the Chemotaxicell was removed and the solution in each well of the plate was pipetted. The cells migrated to the plate side was suspended well and the number of the cells were measured. Note that the migration activity by the peptide was represented by a ratio of the number of the cells to the number of the cells passing the Chemotaxicell at the time of non-stimulation (Chemotaxis Index, CI).

T1 sequence (P11142 whole entry, canonical isoform): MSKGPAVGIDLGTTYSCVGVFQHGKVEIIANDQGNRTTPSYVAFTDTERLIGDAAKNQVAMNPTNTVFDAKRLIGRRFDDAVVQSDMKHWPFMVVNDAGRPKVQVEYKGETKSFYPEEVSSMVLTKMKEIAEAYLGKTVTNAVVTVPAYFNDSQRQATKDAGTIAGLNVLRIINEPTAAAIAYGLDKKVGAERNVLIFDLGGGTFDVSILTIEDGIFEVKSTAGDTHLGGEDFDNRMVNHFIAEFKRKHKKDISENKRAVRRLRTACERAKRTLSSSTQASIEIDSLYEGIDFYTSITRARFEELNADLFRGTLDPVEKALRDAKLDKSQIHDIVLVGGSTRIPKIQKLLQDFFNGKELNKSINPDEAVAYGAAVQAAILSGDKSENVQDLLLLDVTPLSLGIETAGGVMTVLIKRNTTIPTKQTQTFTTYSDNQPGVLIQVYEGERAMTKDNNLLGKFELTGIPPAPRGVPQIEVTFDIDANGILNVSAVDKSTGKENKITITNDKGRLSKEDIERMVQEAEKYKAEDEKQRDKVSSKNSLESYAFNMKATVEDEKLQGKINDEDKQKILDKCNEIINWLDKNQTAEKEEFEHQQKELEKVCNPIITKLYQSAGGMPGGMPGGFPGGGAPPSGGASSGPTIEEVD
T2 sequence (P63097 whole entry): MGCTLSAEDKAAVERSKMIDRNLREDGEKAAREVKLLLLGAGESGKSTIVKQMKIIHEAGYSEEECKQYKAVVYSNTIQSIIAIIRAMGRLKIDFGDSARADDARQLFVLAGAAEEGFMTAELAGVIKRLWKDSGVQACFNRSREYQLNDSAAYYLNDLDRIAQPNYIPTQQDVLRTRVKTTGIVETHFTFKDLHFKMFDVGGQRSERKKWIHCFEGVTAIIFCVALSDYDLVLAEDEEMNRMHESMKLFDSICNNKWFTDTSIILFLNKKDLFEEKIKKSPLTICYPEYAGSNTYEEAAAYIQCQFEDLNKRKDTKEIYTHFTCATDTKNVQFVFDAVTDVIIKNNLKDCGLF

For MLWNLLALHQIGQRTISTASHRH [No. 019], the “competition for binding of the protein to N-biotinyl-[Cys^0]mitocryptide-5” value [1] was “competitive”, the “activation of purified Gi1 protein” value [2] was “activated” and the “concentration of migration activity compared with that of β-hexosaminidase-secreting activity” value [3] was “confirmed at the concentration lower than the concentration at which β-hexosaminidase-secreting activity was confirmed”. The “desensitization of migration activity with increasing concentration of the peptide” value [3] was “subjected to desensitization completely”.
